Data published in patent US20250375468A1, “NOVEL RAS INHIBITORS” (KHR Biotec GmbH, priority 2022, published 2025).

Assays:
Assay in all cases: NanoBit assay for RAS activation (RAS-LgBiT / CRAF RBD-SmBiT)
Assay type in all cases: cell-based
KRAS G12V = biological target: T1, KRAS G12V (Homo sapiens, UniProt P01116, G12V); settings: KRAS G12V with CRAF RBD, 2 h incubation with inhibitor, serum free DMEM
T1 construct: K, N and HRAS G12V (full length) was cloned with Xho I and Bgl Il to LgBit; expressed in transfected cells
Description: (§1) FIGS. 1a) and 1b): NanoBit assay for RAS activation (KRAS G12V, NRAS G12V, HRAS G12V)
(§2) N-terminal LgBiT and C-terminal SmBIT construct was purchased from Promega and K, N and HRAS G12V (full length) was cloned with Xho I and Bgl Il to LgBit and CRAF Ras binding domain (1-149) was cloned with EcoRI and Bgl Il to SmBit. For transfections, 1 μg or 2 μg of (12 well/6 well) plasmids were transfected into cells with 0.5 mM of PEI reagent in 100 μl or 200 μl PBS. One day after transfection, cells were harvested and seeded into 96 well white plates, half area (Greiner). After an additional day the medium was changed to serum free DMEM and the cells were incubated for 2 h with inhibitors. NanoGlo assay was performed according to the manufacturer's instructions. The luminescence was measured using Tecan infinite (Tecan).

NRAS G12V = biological target: T2, NRAS G12V (Homo sapiens, UniProt P01111, G12V); settings: NRAS G12V with CRAF RBD, 2 h incubation with inhibitor, serum free DMEM
T2 construct: K, N and HRAS G12V (full length) was cloned with Xho I and Bgl Il to LgBit; expressed in transfected cells
Description: as §1, §2

HRAS G12V = biological target: T3, HRAS G12V (Homo sapiens, UniProt P01112, G12V); settings: HRAS G12V with CRAF RBD, 2 h incubation with inhibitor, serum free DMEM
T3 construct: K, N and HRAS G12V (full length) was cloned with Xho I and Bgl Il to LgBit; expressed in transfected cells
Description: as §1, §2

T2 sequence (P01111 whole entry G12V): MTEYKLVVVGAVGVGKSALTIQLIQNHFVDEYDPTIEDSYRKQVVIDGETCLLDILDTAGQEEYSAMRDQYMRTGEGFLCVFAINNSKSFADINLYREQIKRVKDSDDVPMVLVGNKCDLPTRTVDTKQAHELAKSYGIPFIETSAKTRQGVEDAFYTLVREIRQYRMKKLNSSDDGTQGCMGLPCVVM

CC[PH](CC)(CC)[Au][S][C@@H]1O[C@H](COC(C)=O)[C@@H](OC(C)=O)[C@H](OC(C)=O)[C@H]1OC(C)=O [Auranofin, (2,3,4,6-Tetra-O-acetyl-1-thio-β-D-glucopyranosato)(triethylphosphan)gold]
inhibits: RAS activation (NanoBit luminescence), K-RAS (KRAS G12V) | RAS activation (NanoBit luminescence), N-RAS (NRAS G12V) | RAS activation (NanoBit luminescence), H-RAS (HRAS G12V)
